According to patent US7427408B2, “Quorum sensing and biofilm formation” (priority 2002, dated 2008):

Key:
[1] = system: wildtype S. mutans biofilms; assay: Treatment of in vitro wildtype biofilm with ampicillin; type: cell-based, Streptococcus mutans; conditions: 16 hours
Procedure: (§1) Biofilms of S. mutans were grown as follows. Individual sterile culture dishes were filled with 2.5 mL of brain heart infusion broth supplemented with 1% (w/v) sucrose. Next, a sterile 18 mm glass microscope cover slip was added to each dish and the culture dish was covered. Each sample was then inoculated with a defined volume of overnight culture. The dishes were incubated anaerobically at 37° C. overnight.
Biofilms were grown overnight using previously described conditions. For treatment with SDS, cover-slips were removed from overnight incubation and rinsed briefly. These were then placed into a fresh culture dish and 2mL of sterile, 1% (w/v) SDS solution was added to each dish. The biofilms were placed on a standard shaker set at 150 rpm for one hour at room temperature. Next, supernatant samples were checked at 40× magnification to confirm that cells were fully individualized and not connected in chains. These samples were measured for their OD600 values. For treatment with antibiotics, biofilms were again grown under standard conditions overnight. […]
(§2) As biofilms are known to be very resistant to detergents and biocides, we were also interested to determine if this property was influenced by the luxS mutation. […] These supernatants were then checked by microscopy to ensure that cells were not clumped, and subsequently, measured for the OD600. […]

[2] = system: V. harveyi BB170 (AI-2 reporter strain); assay: AI-2 luminescence reporter assay of S. mutans conditioned media; type: cell-based, Vibrio harveyi; conditions: S. mutans incubated 3 hours in AB media with sucrose at 1% final concentration
Procedure: S. mutans was grown and assayed as described in Materials and Methods. Cells were grown overnight and resuspended to an OD600 of 0.4 in reporter assay (AB) media and incubated with aeration for 3 hours at 37° C. One sample was incubated in AB alone, while the other had sucrose added to a final concentration of 1%.
The AI-2 luminescence reporter assay was performed essentially as described (38), with the following modifications. To obtain cell free conditioned media, S. mutans was grown overnight as described. Stationary phase cells were resuspended in AB media to an OD600 of 0.4. Cells were then incubated at 37° C. with aeration for 3 hrs. […]
To determine luminescence, an overnight culture of V. harveyi BB170 was diluted 1:1000 into fresh AB medium and 180 μL of cells was added to each 1.5 mL microfuge tube. […]
To determine levels of background luminescence, a sample containing 200 μL of 1:1000 diluted V. harveyi was also included. […] All samples were measured hourly until peak induction at the 3 hr time point. Measurements were collected using a TD 20/20 luminometer and expressed as arbitrary luminescence units.
Since S. mutans is an acidogenic bacterium, pH readings were taken to ensure that there were no negative effects due to lowered pH.

[3] = system: S. mutans biofilms (wildtype and luxS mutant); assay: Treatment of in vitro biofilm with SDS (detergent resistance); type: cell-based, Streptococcus mutans; conditions: 1% SDS, shaken at 150 rpm for one hour
Procedure: Three samples of wildtype and mutant biofilms grown on glass coverslips were shaken at 150 rpm for one hour. The OD600 of the resulting supernatants were compared.
as §1
Biofilms were grown overnight using previously described conditions. For treatment with SDS, cover-slips were removed from overnight incubation and rinsed briefly. These were then placed into a fresh culture dish and 2mL of sterile, 1% (w/v) SDS solution was added to each dish. The biofilms were placed on a standard shaker set at 150 rpm for one hour at room temperature. […] These samples were measured for their OD600 values. […]
as §2

CC1(C)S[C@@H]2[C@H](NC(=O)[C@H](N)c3ccccc3)C(=O)N2[C@H]1C(=O)O [ampicillin]
cells surviving ampicillin treatment ([1]; 50 μg/mL ampicillin): < 1%
cells surviving ampicillin treatment ([1]; 500 μg/mL ampicillin): none survived

OC[C@H]1O[C@@](CO)(O[C@H]2O[C@H](CO)[C@@H](O)[C@H](O)[C@H]2O)[C@@H](O)[C@@H]1O [sucrose]
luminescence (AI-2 induction) relative to background [2]: potent reduction in luminescence to below background values

CCCCCCCCCCCCOS(=O)(=O)[O-].[Na+] [SDS]
OD600 of supernatant, wildtype relative to luxS mutant [3]: about 6 fold
